Source: the NIST ThermoML archive (doi:10.1016/j.jct.2012.01.013)
± gives the expanded uncertainty stated by the source.

Experiment: xn = mol fraction of the nth substance listed
Conditions: 101 kPa, Liquid; for viscosity: Falling or rolling sphere viscometry; for mass density: Vibrating tube method

CC(=O)[O-].Cn1cc[nH+]c1 [1-methylimidazolium acetate] + CO
Conditions	mass density, 293.15 K [kg/m3]	mass density, 298.15 K [kg/m3]	mass density, 303.15 K [kg/m3]	mass density, 308.15 K [kg/m3]	mass density, 313.15 K [kg/m3]	viscosity, 293.15 K [mPa·s]	viscosity, 298.15 K [mPa·s]	viscosity, 303.15 K [mPa·s]	viscosity, 308.15 K [mPa·s]	viscosity, 313.15 K [mPa·s]
x1 = 0.05	841.99 ± 0.77	837.15 ± 0.77	832.29 ± 0.77	827.39 ± 0.77	822.47 ± 0.77	0.818 ± 0.06	0.758 ± 0.06	0.704 ± 0.06	0.657 ± 0.06	0.615 ± 0.06
x1 = 0.1008	880.4 ± 0.64	875.53 ± 0.63	870.63 ± 0.63	865.7 ± 0.63	860.74 ± 0.64	1.049 ± 0.061	0.964 ± 0.061	0.889 ± 0.06	0.822 ± 0.06	0.763 ± 0.06
x1 = 0.1994	936.43 ± 0.49	931.59 ± 0.49	926.72 ± 0.49	921.83 ± 0.49	916.92 ± 0.49	1.568 ± 0.061	1.424 ± 0.061	1.317 ± 0.061	1.189 ± 0.061	1.093 ± 0.061
x1 = 0.2997	974.67 ± 0.35	969.87 ± 0.35	965.05 ± 0.35	960.22 ± 0.36	955.37 ± 0.36	2.134 ± 0.062	1.936 ± 0.062	1.747 ± 0.062	1.585 ± 0.061	1.445 ± 0.061
x1 = 0.4	1002.67 ± 0.28	997.94 ± 0.28	993.18 ± 0.28	988.42 ± 0.28	983.63 ± 0.28	2.806 ± 0.064	2.428 ± 0.063	2.193 ± 0.062	1.991 ± 0.062	1.822 ± 0.062
x1 = 0.4979	1023.14 ± 0.23	1018.47 ± 0.22	1013.77 ± 0.22	1009.07 ± 0.22	1004.35 ± 0.23	3.486 ± 0.066	2.986 ± 0.065	2.672 ± 0.064	2.399 ± 0.063	2.195 ± 0.062
x1 = 0.651	1046.77 ± 0.22	1042.19 ± 0.22	1037.58 ± 0.22	1032.97 ± 0.22	1028.34 ± 0.22	4.706 ± 0.072	4.006 ± 0.068	3.541 ± 0.067	3.133 ± 0.065	2.81 ± 0.064
x1 = 0.8011	1063.57 ± 0.24	1059.06 ± 0.24	1054.54 ± 0.24	1050 ± 0.24	1045.45 ± 0.23	6.119 ± 0.079	5.207 ± 0.074	4.509 ± 0.071	3.927 ± 0.069	3.454 ± 0.067
x1 = 0.9012	1072.29 ± 0.27	1067.83 ± 0.26	–	1058.86 ± 0.26	1054.36 ± 0.26	7.161 ± 0.086	6.065 ± 0.08	5.2 ± 0.075	4.485 ± 0.071	3.912 ± 0.069

CC(=O)[O-].Cn1cc[nH+]c1 [1-methylimidazolium acetate] + CCCO
Conditions	mass density, 293.15 K [kg/m3]	mass density, 298.15 K [kg/m3]	mass density, 303.15 K [kg/m3]	mass density, 308.15 K [kg/m3]	mass density, 313.15 K [kg/m3]	viscosity, 293.15 K [mPa·s]	viscosity, 298.15 K [mPa·s]	viscosity, 303.15 K [mPa·s]	viscosity, 308.15 K [mPa·s]	viscosity, 313.15 K [mPa·s]
x1 = 0.0504	827.73 ± 0.47	823.56 ± 0.47	819.35 ± 0.47	815.11 ± 0.47	810.83 ± 0.47	2.22 ± 0.062	1.974 ± 0.062	1.753 ± 0.061	1.566 ± 0.061	1.402 ± 0.061
x1 = 0.0999	850.08 ± 0.44	845.8 ± 0.44	841.47 ± 0.44	837.11 ± 0.44	832.72 ± 0.44	2.359 ± 0.063	2.088 ± 0.062	1.855 ± 0.062	1.656 ± 0.061	1.485 ± 0.061
x1 = 0.2005	891.09 ± 0.4	886.69 ± 0.4	882.25 ± 0.4	877.78 ± 0.4	873.27 ± 0.4	2.757 ± 0.064	2.429 ± 0.063	2.152 ± 0.062	1.918 ± 0.062	1.718 ± 0.061
x1 = 0.3005	926.35 ± 0.35	921.89 ± 0.36	917.41 ± 0.36	912.89 ± 0.36	908.35 ± 0.36	3.202 ± 0.065	2.795 ± 0.064	2.481 ± 0.063	2.206 ± 0.062	1.973 ± 0.062
x1 = 0.4013	957.27 ± 0.32	952.8 ± 0.32	948.29 ± 0.32	943.76 ± 0.32	939.2 ± 0.32	3.698 ± 0.066	3.231 ± 0.065	2.851 ± 0.064	2.517 ± 0.063	2.25 ± 0.062
x1 = 0.5014	984.26 ± 0.28	979.77 ± 0.28	975.25 ± 0.28	970.72 ± 0.28	966.17 ± 0.28	4.234 ± 0.069	3.682 ± 0.067	3.228 ± 0.065	2.852 ± 0.064	2.536 ± 0.063
x1 = 0.6501	1018.37 ± 0.27	1013.89 ± 0.27	1009.37 ± 0.27	1004.85 ± 0.27	1000.32 ± 0.27	5.113 ± 0.073	4.402 ± 0.07	3.835 ± 0.068	3.363 ± 0.066	2.975 ± 0.065
x1 = 0.7946	1046.51 ± 0.28	1042.04 ± 0.28	1037.55 ± 0.28	1033.05 ± 0.27	1028.55 ± 0.27	6.141 ± 0.079	5.212 ± 0.074	4.517 ± 0.071	3.947 ± 0.068	3.482 ± 0.067
x1 = 0.8952	1063.47 ± 0.3	1059.02 ± 0.29	1054.56 ± 0.29	1050.08 ± 0.29	1045.6 ± 0.29	7.087 ± 0.086	6.009 ± 0.079	5.148 ± 0.075	4.447 ± 0.071	3.905 ± 0.069

CC(=O)[O-].Cn1cc[nH+]c1 [1-methylimidazolium acetate] + CCCCO
Conditions	mass density, 293.15 K [kg/m3]	mass density, 298.15 K [kg/m3]	mass density, 303.15 K [kg/m3]	mass density, 308.15 K [kg/m3]	mass density, 313.15 K [kg/m3]	viscosity, 293.15 K [mPa·s]	viscosity, 298.15 K [mPa·s]	viscosity, 303.15 K [mPa·s]	viscosity, 308.15 K [mPa·s]	viscosity, 313.15 K [mPa·s]
x1 = 0.0506	828.66 ± 0.39	824.7 ± 0.39	820.7 ± 0.39	816.68 ± 0.39	812.62 ± 0.39	–	2.579 ± 0.063	2.208 ± 0.062	1.956 ± 0.062	1.741 ± 0.061
x1 = 0.1008	847.12 ± 0.38	843.04 ± 0.38	838.93 ± 0.38	834.78 ± 0.37	830.61 ± 0.37	2.905 ± 0.064	2.607 ± 0.063	2.251 ± 0.062	1.997 ± 0.062	1.781 ± 0.061
x1 = 0.1979	880.83 ± 0.36	876.62 ± 0.36	872.36 ± 0.36	868.1 ± 0.36	863.78 ± 0.36	3.194 ± 0.065	2.829 ± 0.064	2.462 ± 0.063	2.182 ± 0.062	1.944 ± 0.062
x1 = 0.2995	913.82 ± 0.34	909.53 ± 0.34	905.18 ± 0.34	900.8 ± 0.34	896.49 ± 0.34	3.551 ± 0.066	3.124 ± 0.064	2.731 ± 0.063	2.419 ± 0.063	2.15 ± 0.062
x1 = 0.4002	943.73 ± 0.32	939.37 ± 0.32	934.99 ± 0.32	930.59 ± 0.32	926.17 ± 0.32	3.934 ± 0.067	3.431 ± 0.066	3.011 ± 0.064	2.661 ± 0.063	2.367 ± 0.063
x1 = 0.4999	970.97 ± 0.29	966.57 ± 0.29	962.15 ± 0.29	957.72 ± 0.29	953.27 ± 0.29	4.413 ± 0.069	3.813 ± 0.067	3.334 ± 0.065	2.922 ± 0.064	2.606 ± 0.063
x1 = 0.6505	1008.21 ± 0.28	1003.78 ± 0.28	999.34 ± 0.28	994.88 ± 0.28	990.41 ± 0.28	5.321 ± 0.074	4.556 ± 0.071	3.936 ± 0.068	3.447 ± 0.066	3.056 ± 0.065
x1 = 0.7977	1040.65 ± 0.3	1036.22 ± 0.29	1031.77 ± 0.29	1027.33 ± 0.29	1022.9 ± 0.29	6.49 ± 0.081	5.533 ± 0.076	4.739 ± 0.072	4.068 ± 0.069	3.538 ± 0.067
x1 = 0.9013	1061.34 ± 0.32	1056.91 ± 0.31	1052.46 ± 0.31	1048.01 ± 0.31	1043.57 ± 0.31	7.367 ± 0.087	6.225 ± 0.081	5.314 ± 0.075	4.553 ± 0.072	3.944 ± 0.069
